The numbers were not newly measured in patent US20080138383A1, “COMPOSITIONS AND METHODS FOR TREATING SEIZURES” (priority 2006, published 2008), which cites them from elsewhere.

Where two headings read alike, the source gives them in different places.

For data set [1] the following is noted: in vivo.

In the case of `O=C1CN=C(c2ccccc2)c2cc(Cl)ccc2N1` [desmethyldiazepam], the “activity relative to the parent drug” value (main active metabolite versus diazepam) is “somewhat less active than the parent drug”.
In the case of `O=C1Nc2ccc(Cl)cc2C(c2ccccc2Cl)=NC1O` (centres unmarked) [lorazepam], the onset of action result is “up to 1 hour” (after intramuscular administration) and “several minutes” (after intravenous administration). Also, under “estimates”, the “dose equivalent to 5 mg of diazepam” value is “approximately 0.5 mg”.
With `Cc1ncc2n1-c1ccc(Cl)cc1C(c1ccccc1F)=NC2` [midazolam], the elimination half-life in data set [1] was 1.5 to 3.5 h.
